Molecules are shown by their SMILES.

The record followed here is US6723332B2 (dated 2004).

Regarding `Cc1cc(=O)n2c(C(=O)Nc3cc(F)ccc3F)c[nH]c2c1`, the melting point (commonly the temperature, or range, at which the solid turns liquid) is > 285 °C (dec.).

With `CN(C)CCOc1ccc(NC(=O)C2C=Nc3cccc(=O)n32)cc1` (stereo not drawn), the melting point was in the range of 198 to 210 °C.

With `O=C(Nc1cccc(C(F)(F)F)c1F)C1C=Nc2cccc(=O)n21` (stereo not drawn), the melting point was 274 to 277 °C (dec.).

With `Cc1ccc(F)c(NC(=O)C2C=Nc3cccc(=O)n32)c1` (stereo not drawn), the melting point was 280 to 285 °C (dec.).

On to `O=C(Nc1ccc(OC(F)(F)F)cc1)C1C=Nc2cccc(=O)n21` (stereo not drawn), for which the melting point is 273 to 275 °C.

In the case of `CCOc1ccc(NC(=O)C2C=Nc3cccc(=O)n32)c(F)c1` (stereo not drawn), the melting point is > 216 °C (dec.).
